Key:
Type in all cases: ADME, cell-based, Hepatocyte
[1] = Half life in human hepatocytes
[2] = Intrinsic clearance in human hepatocytes assessed per 10^6 cells relative to SPL026
[3] = Intrinsic clearance in human hepatocytes assessed per 10^6 cells; details: read-out: CLH

## O=C(O)/C=C/C(=O)O.[2H]C([2H])([2H])N(C([2H])([2H])[2H])C([2H])([2H])Cc1c[nH]c2ccccc12
[1]
  half-life: 3.45 h
[2]
  fold change (FC): 2.1
[3]
  hepatocyte CLint: 9.3 µL/min/1e6 cells

## O=C(O)/C=C/C(=O)O.[2H]C([2H])([2H])N(CCc1c[nH]c2ccccc12)C([2H])([2H])[2H]
[2]
  fold change (FC): 1.1
